Laboratory results from patent publication US11840686B2, “Modulation of prekallikrein (PKK) expression” (Ionis Pharmaceuticals, Inc., priority 2013, dated 2023).
pIC50: −log10 of the molar value. Strand notation (5' to 3'): a small letter for the sugar, then the base; units joined by * are phosphorothioate-linked, units joined directly phosphodiester-linked; [ ] holds rarer units or linkages, { } end groups; capitals alone tell only the bases. e = 2'-O-(2-methoxyethyl) (MOE); k = constrained ethyl (cEt); [5mC] = 5-methylcytosine; d = 2'-deoxy (DNA)

Legend:
Type in all cases: cell-based
human PKK mRNA [1] = test: Antisense inhibition of human PKK mRNA in HepaRG cells, 5,000 nM (Example 2)
Outline: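 Percent inhibition of PKK mRNA is reported relative to untreated cells, after adjustment for total RNA by RIBOGREEN. Gapmers of 16–20 nucleosides with 2′-MOE wings were delivered at 5,000 nM by electroporation into HepaRG cells and left for roughly 24 hours before RNA isolation.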

human PKK mRNA [2] = test: Dose-dependent antisense inhibition of human PKK in HepaRG cells, 0.19-5.00 uM (Example 5); conditions: HepaRG cells; for percent inhibition of PKK at 0.19 μM / percent inhibition of PKK at 0.56 μM / percent inhibition of PKK at 1.67 μM / percent inhibition of PKK at 5.00 μM: electroporation, approximately 16 hours; for percent inhibition of PKK mRNA, 0.19 μM: 0.19 μM antisense oligonucleotide; for percent inhibition of PKK mRNA, 0.56 μM: 0.56 μM antisense oligonucleotide; for percent inhibition of PKK mRNA, 1.67 μM: 1.67 μM antisense oligonucleotide; for percent inhibition of PKK mRNA, 5.00 μM: 5.00 μM antisense oligonucleotide
Procedure: Cells were plated at a density of 20,000 cells per well and transfected using electroporation with 0.19 μM, 0.56 μM, 1.67 μM, and 5.00 μM concentrations of antisense oligonucleotide. After a treatment period of approximately 16 hours, RNA was isolated from the cells and PKK mRNA levels were measured by quantitative real-time PCR. Human PKK primer probe set RTS3454 was used to measure mRNA levels. PKK mRNA levels were adjusted according to total RNA content, as measured by RIBOGREEN®. The antisense oligonucleotides were tested in a series of experiments that had similar culture conditions.
The half maximal inhibitory concentration (IC50) of each oligonucleotide is also presented.

human PKK mRNA [3] = test: Antisense inhibition of human PKK mRNA in HepaRG cells, 1,000 nM, MOE/deoxy/cEt oligonucleotides (Example 3)
Outline: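 HepaRG cells at 20,000 per well electroporated with 1,000 nM 16-mer MOE/cEt/deoxy gapmers (phosphorothioate, 5-methylcytosine). After about 24 h, PKK mRNA measured by qRT-PCR with primer probe set RTS3454, normalized to RIBOGREEN total RNA. Reported as percent inhibition versus untreated cells.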

[4] = 4 point dose response, Table 37

547294 (antisense e[5mC]*eT*e[5mC]*eA*eT*d[5mC]*dT*dG*dG*d[5mC]*dA*dG*dT*dA*dT*eT*eG*eG*eG*e[5mC]) [compound 547294]
% inhibition (human PKK mRNA [1]; HepaRG cells, electroporation with 5,000 nM antisense oligonucleotide, approximately 24 hours, PKK mRNA by RT-PCR (RTS3454), relative to untreated control cells, Table 5 experiment): 85% | percent inhibition of PKK at 0.19 μM (human PKK mRNA [2]; Table 38): 28% | percent inhibition of PKK at 0.56 μM (human PKK mRNA [2]; Table 38): 59% | percent inhibition of PKK at 1.67 μM (human PKK mRNA [2]; Table 38): 87% | percent inhibition of PKK at 5.00 μM (human PKK mRNA [2]; Table 38): 86% | pIC50 (human PKK mRNA [2]; 4 point dose response, Table 38): 6.40 | percent inhibition of PKK mRNA, 0.19 μM (human PKK mRNA [2]): 4% | percent inhibition of PKK mRNA, 0.56 μM (human PKK mRNA [2]): 70% | percent inhibition of PKK mRNA, 1.67 μM (human PKK mRNA [2]): 84% | percent inhibition of PKK mRNA, 5.00 μM (human PKK mRNA [2]): 91% | pIC50 (human PKK mRNA [2]; 0.19-5.00 μM): 6.22

546248 (e[5mC]*e[5mC]*eT*e[5mC]*e[5mC]*dA*dA*dA*dG*dT*d[5mC]*dA*dA*d[5mC]*dT*e[5mC]*e[5mC]*e[5mC]*eG*eG; antisense) [compound 546248]
% inhibition (human PKK mRNA [1]; Table 7, HepaRG cells, electroporation with 5,000 nM antisense oligonucleotide, approx. 24 hours, PKK mRNA by RT-PCR (RTS3454), relative to untreated control cells): 86% | percent inhibition of PKK at 0.19 μM (human PKK mRNA [2]; Table 39): 25% | percent inhibition of PKK at 0.56 μM (human PKK mRNA [2]; Table 39): 66% | percent inhibition of PKK at 1.67 μM (human PKK mRNA [2]; Table 39): 87% | percent inhibition of PKK at 5.00 μM (human PKK mRNA [2]; Table 39): 93% | pIC50 (human PKK mRNA [2]; 4 point dose response, Table 39): 6.40 | percent inhibition of PKK mRNA, 0.19 μM (human PKK mRNA [2]): 0% | percent inhibition of PKK mRNA, 0.56 μM (human PKK mRNA [2]): 59% | percent inhibition of PKK mRNA, 1.67 μM (human PKK mRNA [2]): 73% | percent inhibition of PKK mRNA, 5.00 μM (human PKK mRNA [2]): 89% | pIC50 (human PKK mRNA [2]; 0.19-5.00 μM): 6.10

546832 (e[5mC]*eT*e[5mC]*eT*eA*dA*d[5mC]*dA*dG*dT*dA*dT*d[5mC]*dA*d[5mC]*eT*eG*eT*eA*e[5mC]; antisense) [compound 546832]
% inhibition (human PKK mRNA [1]; Table 13, human PKK mRNA in HepaRG cells, 5-10-5 gapmers): 88% | percent inhibition of PKK at 0.19 μM (human PKK mRNA [2]; Table 37): 19% | percent inhibition of PKK at 0.56 μM (human PKK mRNA [2]; Table 37): 38% | percent inhibition of PKK at 1.67 μM (human PKK mRNA [2]; Table 37): 70% | percent inhibition of PKK at 5.00 μM (human PKK mRNA [2]; Table 37): 95% | pIC50 (human PKK mRNA [2]; [4]): 6.10 | percent inhibition of PKK mRNA, 0.19 μM (human PKK mRNA [2]): 36% | percent inhibition of PKK mRNA, 0.56 μM (human PKK mRNA [2]): 49% | percent inhibition of PKK mRNA, 1.67 μM (human PKK mRNA [2]): 85% | percent inhibition of PKK mRNA, 5.00 μM (human PKK mRNA [2]): 97% | pIC50 (human PKK mRNA [2]; 0.19-5.00 μM): 6.40

547618 (antisense eA*e[5mC]*eT*eG*eT*d[5mC]*d[5mC]*dT*dA*dT*dA*dT*d[5mC]*dA*d[5mC]*eT*eG*eT*eA*e[5mC]) [compound 547618]
% inhibition (human PKK mRNA [1]; human PKK mRNA in HepaRG cells, 5-10-5 gapmers, Table 14): 87% | percent inhibition of PKK at 0.19 μM (human PKK mRNA [2]; Table 37): 0% | percent inhibition of PKK at 0.56 μM (human PKK mRNA [2]; Table 37): 0% | percent inhibition of PKK at 1.67 μM (human PKK mRNA [2]; Table 37): 73% | percent inhibition of PKK at 5.00 μM (human PKK mRNA [2]; Table 37): 98% | pIC50 (human PKK mRNA [2]; [4]): 5.89

548421 (antisense e[5mC]*eA*k[5mC]*dT*dG*dT*d[5mC]*d[5mC]*dT*dA*dT*dA*dT*k[5mC]*kA*e[5mC]) [compound 548421]
% inhibition (human PKK mRNA [3]; Table 30, human PKK mRNA, HepaRG cells, 1,000 nM antisense oligonucleotide): 56%

547934 (e[5mC]*eT*k[5mC]*dG*dA*dT*dT*dT*dT*d[5mC]*d[5mC]*dA*dT*kA*k[5mC]*eA; antisense) [compound 547934]
% inhibition (human PKK mRNA [3]; HepaRG cells, electroporation with 1,000 nM antisense oligonucleotide, approximately 24 hours, primer probe set RTS3454, relative to untreated control cells, experiment of Table 23): 38%

548235 (eT*e[5mC]*kT*dA*dG*dA*dT*dG*dA*d[5mC]*d[5mC]*dT*dG*kA*kA*eG; antisense) [compound 548235]
% inhibition (human PKK mRNA [3]; HepaRG cells, electroporation with 1,000 nM antisense oligonucleotide, approx. 24 hours, PKK mRNA by RT-PCR (RTS3454), relative to untreated control cells, Table 26 experiment): 0%
